# In patent publication US8927500B2, “Peptidomimetic macrocycles” (Aileron Therapeutics, Inc., priority 2012, dated 2015):
# Like-named read-outs stand apart in the source and are kept apart here. Where a SMILES comes first, the peptide text is derived from it. Bridges are numbered along the chain shown (N, C = ends). [ ]: non-standard residue; d: D form. Phe(4-guanidino) = N=C(N)Nc1ccc(C[C@H](N)C(=O)O)cc1; Gla = N[C@@H](CC(C(=O)O)C(=O)O)C(=O)O; R8 = C=CCCCCCC[C@@](C)(N)C(=O)O; S5 = C=CCCC[C@](C)(N)C(=O)O; Aib = CC(C)(N)C(=O)O
# Assays:
# [1] = molecular target: MDM2 (Homo sapiens, UniProt Q00987); test: Competitive fluorescence polarization assay for MDM2; type: binding; conditions: competitive FP assay, MDM2
# Sequence of MDM2 (Q00987 1-125): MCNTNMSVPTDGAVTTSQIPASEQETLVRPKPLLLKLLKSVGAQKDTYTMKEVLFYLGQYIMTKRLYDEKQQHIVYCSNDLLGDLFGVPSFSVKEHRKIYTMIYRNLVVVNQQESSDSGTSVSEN
# [2] = molecular target: T1, MDMX (Homo sapiens, UniProt O15151); test: Competitive fluorescence polarization assay for MDMX; type: binding; conditions: competitive FP assay
# T1 sequence (O15151 1-125): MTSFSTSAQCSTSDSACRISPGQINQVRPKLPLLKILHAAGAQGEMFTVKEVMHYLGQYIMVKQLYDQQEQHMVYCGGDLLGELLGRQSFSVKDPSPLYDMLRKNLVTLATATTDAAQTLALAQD
# Procedure: Dilute MDMX (In-house, 40 kD) into FP buffer (High salt buffer-200 mM Nacl, 5 mM CHAPS, pH 7.5.) to make 300 nM (2×) working stock solution. • 2. […] Dilute 1 mM (in 100% DMSO) of FAM labeled linear peptide with DMSO to 100 μM (dilution 1:10). Then, dilute from 100 μM to 10 μM with water (dilution 1:10) and then dilute with FP buffer from 10 μM to 40 nM (dilution 1:250). This is the working solution which will be a 10 nM concentration in well (dilution 1:4). Keep the diluted FAM labeled peptide in the dark until use. • 4. […] Dilute 10 mM (in 100% DMSO) with DMSO to 5 mM (dilution 1:2). Then, dilute from 5 mM to 500 μM with H2O (dilution 1:10) and then dilute with FP buffer from 500 μM to 20 μM (dilution 1:25). […] Transfer 10 μl of serial diluted unlabeled peptides to each well which is filled with 20 μl of 300 nM of protein. • 7. Add 10 μl of 10 nM (4×) of FAM labeled peptide into each well and incubate for 3 hr to read.
Ki ([1]; read-out: Ki (MDM2)) [nM],Ki ([2]; read-out: Ki (MDMX)) [nM],SMILES,Ki ([1]; Ki (MDM2)) [nM],Ki ([2]; Ki (MDMX)) [nM]
< 10,10 to 100,CC(=O)N[C@@H](CC(C)C)C(=O)N[C@H](C(=O)N[C@@H](Cc1ccccc1)C(=O)N[C@]1(C)CCCCCCC=CCCC[C@@](C)(C(=O)N[C@@H](C)C(=O)N[C@@H](C)C(=O)N[C@@H](C)C(=O)N[C@@H](C)C(=O)N[C@@H](C)C(=O)N[C@H](C)C(N)=O)NC(=O)[C@H](CC(C)C)NC(=O)[C@H](CC(C)C)NC(=O)[C@H](C)NC(=O)[C@H](Cc2c[nH]c3ccccc23)NC(=O)[C@H](Cc2ccc(O)cc2)NC(=O)[C@H](CCC(=O)O)NC1=O)[C@@H](C)O [compound 608] (Ac-LTF[R8]EYWALL[S5]AAAAA[dA]-NH2; staple 4-11),–,–
< 10,10 to 100,CC(=O)N[C@@H](CC(C)C)C(=O)N[C@H](C(=O)N[C@@H](Cc1ccccc1)C(=O)N[C@]1(C)CCCCCCC=CCCC[C@@](C)(C(=O)N[C@@H](C)C(=O)N[C@@H](C)C(=O)N[C@@H](C)C(=O)N[C@@H](C)C(=O)N[C@@H](C)C(=O)N[C@H](C)C(N)=O)NC(=O)[C@H](CC(C)C)NC(=O)C(C)(C)NC(=O)[C@H](C)NC(=O)[C@H](Cc2c[nH]c3ccccc23)NC(=O)[C@H](Cc2ccc(O)cc2)NC(=O)[C@H](CCC(=O)O)NC1=O)[C@@H](C)O [compound 609] (Ac-LTF[R8]EYWA[Aib]L[S5]AAAAA[dA]-NH2; staple 4-11),–,–
< 10,10 to 100,CC(=O)N[C@@H](CC(C)C)C(=O)N[C@H](C(=O)N[C@@H](Cc1ccccc1)C(=O)N[C@]1(C)CCCCCCC=CCCC[C@@](C)(C(=O)N[C@@H](C)C(=O)N[C@@H](C)C(=O)N[C@@H](C)C(=O)N[C@@H](C)C(=O)N[C@@H](C)C(=O)N[C@H](C)C(N)=O)NC(=O)[C@H](CC(C)C)NC(=O)[C@H](CO)NC(=O)[C@H](C)NC(=O)[C@H](Cc2c[nH]c3ccccc23)NC(=O)[C@H](Cc2ccc(O)cc2)NC(=O)[C@H](CCC(=O)O)NC1=O)[C@@H](C)O [compound 610] (Ac-LTF[R8]EYWASL[S5]AAAAA[dA]-NH2; staple 4-11),–,–
< 10,10 to 100,CC(=O)N[C@@H](CC(C)C)C(=O)N[C@H](C(=O)N[C@@H](Cc1ccccc1)C(=O)N[C@]1(C)CCCCCCC=CCCC[C@@](C)(C(=O)N[C@@H](C)C(=O)N[C@@H](C)C(=O)N[C@@H](C)C(=O)N[C@@H](C)C(=O)N[C@@H](C)C(=O)N[C@H](C)C(N)=O)NC(=O)[C@H](CC(C)C)NC(=O)[C@H](CC(N)=O)NC(=O)[C@H](C)NC(=O)[C@H](Cc2c[nH]c3ccccc23)NC(=O)[C@H](Cc2ccc(O)cc2)NC(=O)[C@H](CCC(=O)O)NC1=O)[C@@H](C)O [compound 611] (Ac-LTF[R8]EYWANL[S5]AAAAA[dA]-NH2; staple 4-11),–,–

# More lines, now with the values behind:
SMILES,Ki ([1]; read-out: Ki (MDM2)) [nM],Ki ([2]; read-out: Ki (MDMX)) [nM],Ki ([1]; Ki (MDM2)) [nM],Ki ([2]; Ki (MDMX)) [nM]
CC(=O)N[C@@H](CC(C)C)C(=O)N[C@H](C(=O)N[C@@H](Cc1ccccc1)C(=O)N[C@]1(C)CCCCCCC=CCCC[C@@](C)(C(=O)N[C@@H](C)C(=O)N[C@@H](C)C(=O)N[C@@H](C)C(=O)N[C@@H](C)C(=O)N[C@@H](C)C(=O)N[C@H](C)C(N)=O)NC(=O)[C@H](CC(C)C)NC(=O)[C@H](CCC(N)=O)NC(=O)[C@H](C)NC(=O)[C@H](Cc2c[nH]c3ccccc23)NC(=O)[C@H](Cc2ccc(O)cc2)NC(=O)[C@H](CCC(N)=O)NC1=O)[C@@H](C)O [compound 600] (Ac-LTF[R8]QYWAQL[S5]AAAAA[dA]-NH2; staple 4-11),–,–,< 10,< 10
CC(=O)N[C@@H](CC(C)C)C(=O)N[C@H](C(=O)N[C@@H](Cc1ccccc1)C(=O)N[C@]1(C)CCCCCCC=CCCC[C@@](C)(C(=O)N[C@@H](C)C(=O)N[C@@H](C)C(=O)N[C@@H](C)C(=O)N[C@@H](C)C(=O)N[C@@H](C)C(=O)N[C@H](C)C(N)=O)NC(=O)[C@H](CC(C)C)NC(=O)[C@H](CCC(N)=O)NC(=O)[C@H](C)NC(=O)[C@H](Cc2c[nH]c3ccccc23)NC(=O)[C@H](Cc2ccc(O)cc2)NC(=O)[C@H](CC(C(=O)O)C(=O)O)NC1=O)[C@@H](C)O [compound 602] (Ac-LTF[R8][Gla]YWAQL[S5]AAAAA[dA]-NH2; staple 4-11),–,–,< 10,< 10
CC(=O)N[C@@H](CC(C)C)C(=O)N[C@H](C(=O)N[C@@H](Cc1ccccc1)C(=O)N[C@]1(C)CCCCCCC=CCCC[C@@](C)(C(=O)N[C@@H](C)C(=O)N[C@@H](C)C(=O)N[C@@H](C)C(=O)N[C@@H](C)C(=O)N[C@@H](C)C(=O)N[C@H](C)C(N)=O)NC(=O)[C@H](CC(C)C)NC(=O)[C@H](CCC(N)=O)NC(=O)[C@H](C)NC(=O)[C@H](Cc2c[nH]c3ccccc23)NC(=O)[C@H](Cc2ccc(O)cc2)NC(=O)[C@H](Cc2ccc(NC(=N)N)cc2)NC1=O)[C@@H](C)O [compound 603] (Ac-LTF[R8][Phe(4-guanidino)]YWAQL[S5]AAAAA[dA]-NH2; staple 4-11),–,–,< 10,< 10
